Measured values: patent US5593965A, “Anti-tumor effects of GnRH-III” (Creighton University, priority 1994, dated 1997)
Entries after “also recorded” stand apart in the source; their conditions may differ.

How the values were obtained:
rat pituitary cells = experiment: Superfused rat pituitary cell system (LH release); type: cell-based
Description: The GnRH activity of the peptides were assayed by using the superfused rat pituitary cell system as described by Vigh and Schally, Peptides, 5:241-247, Suppl. 1, (1984) and Csernus and Schally, Neuroendocrine Research Methods, Greenstein, B., ed., Harwood Academic Publishers, London, pp66-102 (1985). Mixed cell populations of four regularly cycling female rats, at random stages of the estrous cycle, were used in each chamber of a superfusion apparatus. The cells were perfused for 12 hours with Medium 199 (Sigma) at a flow rate of 20 ml/hour, prior to administration of the peptides. […] The peptide-containing solutions are prepared from the stock solution immediately before use. At the beginning of each experiment, cells were rechallenged with potassium to check the secretability of Luteinizing Hormone, independent of the participation of specific hormone recptors. Fractions, 1 ml per 3 minutes, were collected and the concentration of Luteinzing Hormone was determined by radioimmunoassay. NIAMD radioimmunoassay kits were used for the Luteinizing Hormone and Follicle Stimulating Hormone assays. The superfusion data was analyzed by the computer program of Csernus and Schally (1985).

ovulation in rats [1] = conditions: cited from earlier work
MDA-MB-231 cell line = type: cell-based, human; conditions: dose range 1-50 μM
Description: (§1) Two human breast cancer cell lines were used. They were: (1) the estrogen receptor positive MCF-7 cell line and (2) the estrogen receptor negative MDA-MB-231 cell line. Both cell lines contain GnRH receptors. These cell lines were used to illustrate the anticancer effects of GnRH-III. The cells were maintained in Dulbecco-modified Eagle-minimal essential medium (DMEM, GIBCO) containing 10% fetal calf serum (10% FCS). The clonogenic assay provides information on the cell damaging effects of a substance in a dose-dependent manner. Three hundred cells were transferred into 35 mm Petri dishes in 2.5 ml of medium. On the following day, the cultures were treated with 1, 5, 10, 20, 30 and 50 μM doses of GnRH-III. Colonies which developed from specific cells were stained with crystal violet and counted on days 8 to 12 after treatment. Colony numbers of untreated control cultures were counted for comparison.

MCF-7 cell line = type: cell-based, human; conditions: dose range 1-50 μM
Description: as §1

[2] = tested on: human breast cancer cell lines; type: cell-based
Description: as §1, with “comparison. The antiproliferation assay used herein measures the inhibition of cell proliferation due to drug exposure. Loose subconfluent cultures (6×10^5 -1×10^6 cells) in 100 mm Petri dishes were initiated and treated with 1, 5, 10, 20, 30 and 50 μM doses of GnRH-III on every other day for various periods of time. On day 6, the cell numbers of both control and treated cultures were counted in a Neubauer-type hemocytometer.” for “comparison.”

ovulation in rats [3] = experiment: In vivo assay of inhibition of ovulation (chemical castration); parameters: species or system rat
Description: Adult female rates(Wistar-R-Amsterdam), 200-250 grams, housed under controlled lighting (light period 05:00 to 19:00) with free access to pelleted food and tap water were used herein. For the in vivo assay of inhibition of ovulation, aliquots of peptide solutions were injected subcutaneously into female rats at noon on the day of proestrous for single-dose tests and every day at noon for long term tests. Only rats which had previously shown three consecutive regular 4-day cycles, as indicated by vaginal smears test, were used herein. Animals were ovariectomized on the day of the first diestrous after the injection. Oviducts were prepared under stereo-microscope and tested for ova as is well known in the art.

human GnRH: hypothalamic peptide hormone stimulating release of Luteinizing Hormone and Follicle Stimulating Hormone (QHWSYGLRPG; Gonadoliberin-1; UniProt P01148 24-33, looked up) [reference compound]
induction of LH release (rat pituitary cells; doses 10^-9 -10^-7 M): did not induce Luteinizing Hormone (LH)-release | inhibition of LH release induced by native GnRH (rat pituitary cells; doses 10^-9 -10^-7 M): neither did it inhibit the LH-release induced by native GnRH | effective doses on ovulation (ovulation in rats [1]): 10^-9 to 10^-7 M

[B-Asp(α-diethylamide^6 ],Gln^8)GnRH [TH-332, reference compound]
colony formation (MDA-MB-231 cell line): did not inhibit colony formation | colony formation (MCF-7 cell line): did not inhibit colony formation

NCCCC[C@H](NC(=O)[C@H](Cc1c[nH]c2ccccc12)NC(=O)[C@H](CC(=O)O)NC(=O)[C@H](Cc1c[nH]cn1)NC(=O)[C@H](CO)NC(=O)[C@H](Cc1c[nH]c2ccccc12)NC(=O)[C@H](Cc1c[nH]cn1)NC(=O)[C@@H]1CCC(=O)N1)C(=O)N1CCC[C@H]1C(=O)NCC(N)=O [GnRH-III]
decrease in cloning efficiency ([2]; at 30 μM): 65-80% | anticancer activity compared with other GnRH analogs ([2]; in vitro, human breast cancer cell lines): surpass that of the well known agonists Buserelin, Decapeptyl and Ovurelin, and to approximate that of the antagonists SB-30 and MI-1544 | LH release at high concentration (rat pituitary cells; 10^-6 M): did cause LH release | agonist/antagonist character in mammalian pituitary gland (rat pituitary cells; doses of 10^-9 to 10^-7 M): neither agonist, nor antagonist | colony formation (MDA-MB-231 cell line): inhibited colony formation | colony formation (MCF-7 cell line): inhibited colony formation | influence on ovulation (ovulation in rats [3]; female rats, subcutaneous, doses of 10^-9 to 10^-7 M): no influence on ovulation | function of gonads (ovulation in rats [3]; rats): did not influence the function of gonads; also recorded: does not influence gonadal function | histology of ovary (ovulation in rats [3]; rats, repeated injections): did not change histology of ovary; also recorded: did not change the histological character of ovary
